The test system of this assay is Human RSV-A (“Long” strain). Put plainly: RSV-A assay (CPE, ATPlite readout in Hep-2 cells). It counts as cell-based. Conditions: human respiratory syncytial virus, read-out: Human RSV-A (“Long” strain) EC50. The source says:
Hep-2 cells, (originally derived from tumors grown in irradiated-cortisonised weanling rats that had been injected with epidermoid carcinoma tissue from a person's larynx, but later found to be indistinguishable from HeLa cells by PCR DNA analysis), were used for the culturing of genotype A, “Long” strain RSV. Flasks were inoculated with RSV and viral stocks were collected once cytopathic effect (CPE) was greater than 90%. Viral stocks in 25% sucrose media were snap frozen using liquid nitrogen to increase viral stability. Viral stock titers were quantified by tissue culture infectious dose 50% (TCID50) using 8,000 cells per well and 3-fold viral dilutions across a 96-well plate, cultured for 4 days. Viral stock titers were also quantified by a plaque forming unit assay, as described elsewhere.
Following extensive parameter testing, the final assay is run as follows: Hep-2 cells are seeded into the inner 60 wells of a 96-well plate at 8,000 cells per well in a volume of 50 μL using Growth Media (DMEM without phenol red, 1% L-Glut, 1% Penn/Strep, 1% nonessential amino acids, 10% heat-inactivated FBS). 2-fold serial dilutions of control and test compounds are added to the wells in duplicate in a total volume of 25 μL. Viral stock is then added to the wells at a multiplicity of infection (MOI) of 0.1 in a volume of 25 μL, bringing the total volume of each well to 100 μL. The MOI is calculated using the PFU/mL, or TCID50 if unavailable. Each 96-well plate has a control column of 6 wells with cells and virus but no compound (negative control, max CPE), a column with cells but no compound or virus (positive control, minimum CPE), and a column with no cells or virus or compound (background plate/reagent control). The control wells with cells but no virus are given an additional […], of growth media containing an equal quantity of sucrose as those wells receiving the viral stock in order to keep consistent in media and volume conditions. The outer wells of the plate are filled with 125 μL of moat media (DMEM, 1% Penn/Strep) to act as a thermal and evaporative moat around the test wells. Following a 5-day incubation period, the plates are read using ATPlite (50 uL added per well), which quantifies the amount of ATP (a measure of cell health) present in each well. Assay plates are read using the Envision luminometer. […] EC50 ranges are as follows: A<0.2 μM; B≥0.2 μM.

Setting [1] is: 120 h, Hep-2 cells, MOI 0.1, 5-day incubation, ATPlite.

Structures are written as SMILES. Like-named read-outs stand apart in the source and are kept apart here.

For `C[C@](O)(CNC(=O)c1cc(OC2CC2)c2ncccc2c1)c1cc2c(c(-c3ccc(F)c(Cl)c3)n1)OC[C@@]2(N)C(F)(F)F` [Example 56], the EC50 under setting [1] was over 200 nM.
The same measure, in the same setting: under `COCCOc1ccc(C(=O)NC[C@](O)(c2cc3c(c(-c4ccc(F)cc4)n2)OC[C@@]3(N)C(F)(F)F)C(F)(F)F)cc1OC` [Example 37] stands over 200 nM; under `COc1cc(C(=O)NC[C@](O)(c2cc3c(c(-c4ccc(F)cc4)n2)OC[C@@]3(NC(=O)CO)C(F)(F)F)C(F)(F)F)ccc1OC1CC1` [Example 14, 4-cyclopropoxy-3-methoxy-N—((S)-3,3,3-trifluoro-2-((R)-7-(4-fluorophenyl)-3-(2-hydroxyacetamido)-3-(trifluoromethyl)-2,3-dihydrofuro[2,3-c]pyridin-5-yl)-2-hydroxypropyl)benzamide], under 200 nM.
Consider `COc1cc(C(=O)NC[C@](O)(c2cc3c(c(-c4ccc(F)cc4)n2)OC[C@@]3(N)C(F)(F)F)C(F)(F)F)cc(F)c1OC1CC1` [Example 39], for which the EC50 under setting [1] is over 200 nM.
Still for that read-out and setting: under `COC[C@](O)(CNC(=O)c1cc(OC2CC2)c2ncccc2c1)c1cc2c(c(-c3ccc(F)cc3)n1)OC[C@@]2(N)C(F)(F)F` [Example 50, N—((S)-2-((R)-3-amino-7-(4-fluorophenyl)-3-(trifluoromethyl)-2,3-dihydrofuro[2,3-c]pyridin-5-yl)-2-hydroxy-3-methoxypropyl)-8-cyclopropoxyquinoline-6-carboxamide] stands under 200 nM.
Turning to `COc1cccc2cc(C(=O)NC[C@](O)(c3cc4c(c(-c5ccc(F)cc5)n3)OC[C@@]4(N)C(F)(F)F)C(F)(F)F)cnc12` [Example 41], under setting [1], the half-maximal effective concentration (EC50) was over 200 nM.
On the same count and under the same terms, under `COc1cc(C(=O)NC[C@](C)(O)c2cc3c(c(-c4ccc(F)cc4)n2)OC[C@@]3(N)C(F)(F)F)cc2cccnc12` [Example 17, N—((S)-2-((R)-3-amino-7-(4-fluorophenyl)-3-(trifluoromethyl)-2,3-dihydrofuro[2,3-c]pyridin-5-yl)-2-hydroxypropyl)-8-methoxyquinoline-6-carboxamide] stands under 200 nM.
On the same count and under the same terms, under `C[C@](O)(CNC(=O)c1cc(OC2CC2)c2ncccc2c1)c1cc2c(c(-c3ccc(F)cc3)n1)OC[C@@]2(N)C(F)(F)F` [Example 16, N—((S)-2-((R)-3-amino-7-(4-fluorophenyl)-3-(trifluoromethyl)-2,3-dihydrofuro[2,3-c]pyridin-5-yl)-2-hydroxypropyl)-8-cyclopropoxyquinoline-6-carboxamide] stands under 200 nM; under `Nc1nc2ccc(C(=O)NC[C@](O)(c3cc4c(c(-c5ccc(F)cc5)n3)OC[C@@]4(N)C(F)(F)F)C3CC3)cc2s1` [Example 52, 2-amino-N—((S)-2-((R)-3-amino-7-(4-fluorophenyl)-3-(trifluoromethyl)-2,3-dihydrofuro[2,3-c]pyridin-5-yl)-2-cyclopropyl-2-hydroxyethyl)benzo[d]thiazole-6-carboxamide], under 200 nM; under `N[C@@]1(C(F)(F)F)COc2c1cc([C@](O)(CO)CNC(=O)c1cc(OC3CC3)c3ncccc3c1)nc2-c1ccc(F)cc1` [Example 59], over 200 nM.
Same read-out and setting: under `COc1cc(C(=O)NC[C@](O)(c2cc3c(c(-c4ccc(F)cc4)n2)OC[C@@]3(N)C(F)(F)F)C(F)(F)F)ccc1C(F)(F)F` [Example 42] stands over 200 nM; under `COc1ccc2nc(C(=O)NC[C@](O)(c3cc4c(c(-c5ccc(F)cc5)n3)OC[C@@]4(N)C(F)(F)F)C(F)(F)F)cc(OC)c2c1` [Example 43], over 200 nM.
For the compound `COC(=O)N[C@@]1(C(F)(F)F)COc2c1cc([C@@](C)(O)CNC(=O)c1ccc(OC3CC3)c(OC)c1)nc2-c1ccc(F)cc1` [Example 15, methyl ((R)-5-((S)-1-(4-cyclopropoxy-3-methoxybenzamido)-2-hydroxypropan-2-yl)-7-(4-fluorophenyl)-3-(trifluoromethyl)-2,3-dihydrofuro[2,3-c]pyridin-3-yl)carbamate], under “HEp-2, 120 h”, the EC50 was under 200 nM.
Regarding `COc1cc(C(=O)NC[C@](O)(c2cc3c(c(-c4ccc(F)cc4)n2)OC[C@@]3(N)C(F)(F)F)C(C)(C)C)ccc1OC1CC1` [Example 12, N—((S)-2-((R)-3-amino-7-(4-fluorophenyl)-3-(trifluoromethyl)-2,3-dihydrofuro[2,3-c]pyridin-5-yl)-2-hydroxy-3,3-dimethylbutyl)-4-cyclopropoxy-3-methoxybenzamide], the concentration giving a half-maximal response (EC50) under setting [1] is over 200 nM.
For `COc1cc(C(=O)NC[C@@](O)(c2cc3c(c(-c4ccc(F)cc4)n2)OC[C@@]3(N)C(F)(F)F)C(F)(F)F)ccc1OC1CC1` [Example 2, N—((R)-2-((R)-3-amino-7-(4-fluorophenyl)-3-(trifluoromethyl)-2,3-dihydrofuro[2,3-c]pyridin-5-yl)-3,3,3-trifluoro-2-hydroxypropyl)-4-cyclopropoxy-3-methoxybenzamide], the EC50 under setting [1] was over 200 nM.
As for `COc1cc(C(=O)NC[C@](O)(c2cc3c(c(-c4ccc(F)cc4)n2)OC[C@]3(N)C(F)(F)F)C(F)(F)F)ccc1OCCO` [Example 33], the concentration for a half-maximal effect (EC50) under setting [1] was over 200 nM.
For `CC(C)(C)S(=O)(=O)N[C@@]1(C(F)(F)F)COc2c1cc([C@@](C)(O)CNC(=O)c1cc(OC3CC3)c3ncccc3c1)nc2-c1ccc(F)cc1` [Example 45], the concentration for a half-maximal effect (EC50) under setting [1] is over 200 nM.
In the case of `N[C@@]1(C(F)(F)F)COc2c1cc([C@@](O)(CNC(=O)c1cc(OC3CC3)c3nc(Cl)ccc3c1)C1CC1)nc2-c1ccc(F)cc1` [Example 59d], the EC50 under setting [1] is under 200 nM.
`N[C@@]1(C(F)(F)F)COc2c1cc([C@@](O)(CNC(=O)c1cc(OC3CC3)c3[nH]c(=O)ccc3c1)C1CC1)nc2-c1ccc(F)cc1` [Example 59c]: the EC50 under setting [1] was over 200 nM.
Same read-out and setting: under `COc1cc(C(=O)NC[C@](O)(c2cc3c(c(-c4ccc(F)cc4)n2)OC[C@@]3(N)C(F)(F)F)C2CC2)cc2cn(C)nc12` [Example 55, N—((S)-2-((R)-3-amino-7-(4-fluorophenyl)-3-(trifluoromethyl)-2,3-dihydrofuro[2,3-c]pyridin-5-yl)-2-cyclopropyl-2-hydroxyethyl)-7-methoxy-2-methyl-2H-indazole-5-carboxamide] stands under 200 nM.
Still for that read-out and setting: under `COc1cc(C(=O)NC[C@](O)(c2cc3c(c(-c4ccc(F)cc4)n2)OC[C@@]3(N)C(F)(F)F)C(F)(F)F)ccc1OCCO` [Example 31] stands over 200 nM.
On to `COc1ccc(C(=O)NC[C@](O)(c2cc3c(c(-c4ccc(F)cc4)n2)OC[C@@]3(N)C(F)(F)F)C(F)(F)F)cc1OC` [Example 34], for which, under setting [1], the EC50 is over 200 nM.
The same measure, in the same setting: under `C[C@](O)(CNC(=O)c1ccc(OC2CC2)c(-c2cccnc2)c1)c1cc2c(c(-c3ccc(F)cc3)n1)OC[C@@]2(N)C(F)(F)F` [Example 18, N—((S)-2-((R)-3-amino-7-(4-fluorophenyl)-3-(trifluoromethyl)-2,3-dihydrofuro[2,3-c]pyridin-5-yl)-2-hydroxypropyl)-4-cyclopropoxy-3-(pyridin-3-yl)benzamide] stands under 200 nM.
For the compound `COc1cc(C(=O)NC[C@](C)(O)c2cc3c(c(-c4ccc(F)cc4)n2)OC[C@@]3(NC(=N)NC#N)C(F)(F)F)ccc1OC1CC1` [Example 21, N—((S)-2-((R)-3-(3-cyanoguanidino)-7-(4-fluorophenyl)-3-(trifluoromethyl)-2,3-dihydrofuro[2,3-c]pyridin-5-yl)-2-hydroxypropyl)-4-cyclopropoxy-3-methoxybenzamide], the 50% effective concentration (EC50) (HEp-2, 120 h) was under 200 nM.
In the case of `COc1cc(F)c(C(=O)NC[C@](O)(c2cc3c(c(-c4ccc(F)cc4)n2)OC[C@@]3(N)C(F)(F)F)C(F)(F)F)cc1OC` [Example 38], the EC50 under setting [1] was over 200 nM.
On to `COc1cc(C(=O)NC[C@@](O)(c2cc3c(c(-c4ccc(F)cc4)n2)OC[C@]3(N)C(F)(F)F)C(F)(F)F)ccc1OCCO` [Example 32], for which the EC50 under setting [1] was over 200 nM.
Turning to `COc1cc(C(=O)NC[C@](O)(c2cc3c(c(-c4ccc(F)cc4)n2)OC[C@@]3(N)C(F)(F)F)C2COC2)ccc1OC1CC1` [Example 57], under setting [1], the concentration giving a half-maximal response (EC50) was over 200 nM.
As for `N[C@@]1(C(F)(F)F)COc2c1cc([C@@](O)(CNC(=O)c1cc(OC3CC3)c3ncccc3c1)C1COC1)nc2-c1ccc(F)cc1` [Example 58], under setting [1], the concentration giving a half-maximal response (EC50) is over 200 nM.
As to `Cc1ccc2cc(C(=O)NC[C@](O)(c3cc4c(c(-c5ccc(F)cc5)n3)OC[C@@]4(N)C(F)(F)F)C3CC3)cc(OC3CC3)c2n1` [Example 59e], under setting [1], the EC50 is under 200 nM.
On the same count and under the same terms, under `Nc1nc2c(F)cc(C(=O)NC[C@](O)(c3cc4c(c(-c5ccc(F)cc5)n3)OC[C@@]4(N)C(F)(F)F)C3CC3)cc2s1` [Example 54, 2-amino-N—((S)-2-((R)-3-amino-7-(4-fluorophenyl)-3-(trifluoromethyl)-2,3-dihydrofuro[2,3-c]pyridin-5-yl)-2-cyclopropyl-2-hydroxyethyl)-4-fluorobenzo[d]thiazole-6-carboxamide] stands under 200 nM.

For the origin of these results see patent US11420976B2 (priority 2020, dated 2022).
